Source: ChEMBL document CHEMBL1201862, “PubChem BioAssay data set” (2004)
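Briefly, cells in 96-well plates were exposed to five compound concentrations for 48 h, and endpoints were estimated by linear interpolation. At the GI50, growth is halved.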 The source made the active and inactive calls. Cut-off read from the data, not from the text of the source: active = GI50 up to about 1.1 µM and inactive = higher.

Key:
Experiment in all cases: NCI tumour cell line growth inhibition, 48 h
[1] = tested on: HOP-62
[2] = tested on: 786-0
[3] = tested on: SF-295
[4] = tested on: HCT-15
[5] = tested on: U-251
[6] = tested on: TK-10
[7] = tested on: SN12C
[8] = tested on: OVCAR-5
[9] = tested on: K562
[10] = tested on: SNB-19
[11] = tested on: MDA-N
[12] = tested on: SK-MEL-5
[13] = tested on: DU-145
[14] = tested on: ACHN
[15] = tested on: SR
[16] = tested on: OVCAR-8
[17] = tested on: NCI-H522
[18] = tested on: NCI-H23
[19] = tested on: SNB-75
[20] = tested on: HOP-92

| Compound | GI50 [1] | GI50 [2] | GI50 [3] | GI50 [4] | GI50 [5] | GI50 [6] | GI50 [7] | GI50 [8] | GI50 [9] | GI50 [10] | GI50 [11] | GI50 [12] | GI50 [13] | GI50 [14] | GI50 [15] | GI50 [16] | GI50 [17] | GI50 [18] | GI50 [19] | GI50 [20] |
| --- | --- | --- | --- | --- | --- | --- | --- | --- | --- | --- | --- | --- | --- | --- | --- | --- | --- | --- | --- | --- |
| O=[N+]([O-])C(=C1NCCN1)C(Cl)=C(Cl)Cl | > 100 µM (inactive) | > 100 µM (inactive) | > 100 µM (inactive) | > 100 µM | > 100 µM (inactive) | > 100 µM (inactive) | > 100 µM (inactive) | > 100 µM (inactive) | > 100 µM (inactive) | > 100 µM (inactive) | > 100 µM (inactive) | > 100 µM (inactive) | > 100 µM (inactive) | > 100 µM (inactive) | > 100 µM (inactive) | > 100 µM (inactive) | > 100 µM (inactive) | > 100 µM (inactive) |  |  |
| Cc1cnc2sn(-c3ccc(Oc4ccccc4)cc3)c(=O)c2c1 | 12.9 µM (inactive) | 10.7 µM (inactive) | 15.5 µM (inactive) | 7.38 µM | 17 µM (inactive) | 17.7 µM (inactive) | 17.9 µM (inactive) | 18.4 µM (inactive) |  | 19.7 µM (inactive) | 16.6 µM (inactive) | 9.59 µM (inactive) | 14.1 µM (inactive) | 13.7 µM (inactive) | 7.06 µM (inactive) | 28.8 µM (inactive) | 5.58 µM (inactive) | 25.4 µM (inactive) | 17.9 µM (inactive) |  |
| COc1ccc(-c2csc(Cc3nc4ccccc4c(=O)n3-c3ccc(Cl)cc3)n2)cc1 | > 100 µM (inactive) | 28.6 µM (inactive) | 50.4 µM (inactive) | 29.1 µM | 32.2 µM (inactive) | > 100 µM (inactive) |  | 23.9 µM (inactive) | 14.6 µM (inactive) | 24.4 µM (inactive) | 22.7 µM (inactive) | 19.3 µM (inactive) | 84.5 µM (inactive) | 30.9 µM (inactive) |  | 57.7 µM (inactive) | 45.7 µM (inactive) | 28.8 µM (inactive) | > 100 µM (inactive) |  |
| CC1=NNC(=O)C1C1CC(c2c[nH]c3ccccc23)=NN(c2ccccc2)C1=O (stereo not given) | > 100 µM (inactive) | 24.6 µM (inactive) | > 100 µM (inactive) | 37 µM | 87.5 µM (inactive) | > 100 µM (inactive) | 50.5 µM (inactive) | > 100 µM (inactive) | 35 µM (inactive) | > 100 µM (inactive) | 59.2 µM (inactive) | > 100 µM (inactive) | > 100 µM (inactive) | > 100 µM (inactive) |  | > 100 µM (inactive) | 19.8 µM (inactive) | > 100 µM (inactive) | > 100 µM (inactive) | > 100 µM (inactive) |
| O=C(COc1ccc(OCC(=O)N2C(=O)CC/C2=N\c2ccc(Cl)cc2)cc1)N1C(=O)CS/C1=N\c1ccc(Cl)cc1 | 73.1 µM (inactive) | > 100 µM (inactive) | 52.8 µM (inactive) | > 100 µM | 29.5 µM (inactive) | > 100 µM (inactive) | > 100 µM (inactive) | > 100 µM (inactive) | 66.4 µM (inactive) | 63.2 µM (inactive) | > 100 µM (inactive) | 76 µM (inactive) | > 100 µM (inactive) | 49.8 µM (inactive) |  | 47.5 µM (inactive) | 63.4 µM (inactive) | 42 µM (inactive) | 18.5 µM (inactive) | > 100 µM (inactive) |
| COC[C@@H](/N=C/c1ccc(OC)cc1)C(C)C | > 100 µM (inactive) | > 100 µM (inactive) | > 100 µM (inactive) | > 100 µM | > 100 µM (inactive) | > 100 µM (inactive) | > 100 µM (inactive) | > 100 µM (inactive) | > 100 µM (inactive) |  | > 100 µM (inactive) | > 100 µM (inactive) | > 100 µM (inactive) | > 100 µM (inactive) | > 100 µM (inactive) | > 100 µM (inactive) | > 100 µM (inactive) | > 100 µM (inactive) | > 100 µM (inactive) |  |
| COC(=O)C1=C(C(=O)OC)c2cc(OC)ccc2C(C(=S)N(C)C)S1 (stereo not given) | > 100 µM (inactive) | > 100 µM (inactive) | > 100 µM (inactive) | > 100 µM | > 100 µM (inactive) | > 100 µM (inactive) | > 100 µM (inactive) | > 100 µM (inactive) | > 100 µM (inactive) | > 100 µM (inactive) | > 100 µM (inactive) |  | > 100 µM (inactive) | > 100 µM (inactive) | > 100 µM (inactive) | > 100 µM (inactive) |  | > 100 µM (inactive) | > 100 µM (inactive) | 0.0111 µM (active) |
| C/C=C(\C)CC/C=C/CO[Si](C)(C)C(C)(C)C | > 100 µM (inactive) | > 100 µM (inactive) | 79.1 µM (inactive) | > 100 µM |  | > 100 µM (inactive) | > 100 µM (inactive) | > 100 µM (inactive) | > 100 µM (inactive) | > 100 µM (inactive) | > 100 µM (inactive) | > 100 µM (inactive) | > 100 µM (inactive) | > 100 µM (inactive) | 28.9 µM (inactive) | > 100 µM (inactive) | > 100 µM (inactive) | > 100 µM (inactive) | > 100 µM (inactive) |  |
